Patent publication US20140148606A1, “ANTI-TUMOR EFFECTS OF ALLOSTERIC FOCAL ADHESION KINASE INHIBITOR, METHYL VIOLET DERIVATIVES” (Korea Institute of Science and Technology, priority 2012, published 2014)
pIC50: −log10 of the molar value.

What was measured:
full-length FAK = molecular target: T1, full-length FAK (Homo sapiens, UniProt Q05397); assay: FAK biochemical kinase assay (LANCE Ultra TR-FRET); conditions: for dependence of kinase inhibitory activity against full-length FAK on the concentration of ATP: methyl violet 2B at 2.7 μM, FIG. 2
T1 construct: purchased Signalchem
T1 sequence (Q05397 whole entry): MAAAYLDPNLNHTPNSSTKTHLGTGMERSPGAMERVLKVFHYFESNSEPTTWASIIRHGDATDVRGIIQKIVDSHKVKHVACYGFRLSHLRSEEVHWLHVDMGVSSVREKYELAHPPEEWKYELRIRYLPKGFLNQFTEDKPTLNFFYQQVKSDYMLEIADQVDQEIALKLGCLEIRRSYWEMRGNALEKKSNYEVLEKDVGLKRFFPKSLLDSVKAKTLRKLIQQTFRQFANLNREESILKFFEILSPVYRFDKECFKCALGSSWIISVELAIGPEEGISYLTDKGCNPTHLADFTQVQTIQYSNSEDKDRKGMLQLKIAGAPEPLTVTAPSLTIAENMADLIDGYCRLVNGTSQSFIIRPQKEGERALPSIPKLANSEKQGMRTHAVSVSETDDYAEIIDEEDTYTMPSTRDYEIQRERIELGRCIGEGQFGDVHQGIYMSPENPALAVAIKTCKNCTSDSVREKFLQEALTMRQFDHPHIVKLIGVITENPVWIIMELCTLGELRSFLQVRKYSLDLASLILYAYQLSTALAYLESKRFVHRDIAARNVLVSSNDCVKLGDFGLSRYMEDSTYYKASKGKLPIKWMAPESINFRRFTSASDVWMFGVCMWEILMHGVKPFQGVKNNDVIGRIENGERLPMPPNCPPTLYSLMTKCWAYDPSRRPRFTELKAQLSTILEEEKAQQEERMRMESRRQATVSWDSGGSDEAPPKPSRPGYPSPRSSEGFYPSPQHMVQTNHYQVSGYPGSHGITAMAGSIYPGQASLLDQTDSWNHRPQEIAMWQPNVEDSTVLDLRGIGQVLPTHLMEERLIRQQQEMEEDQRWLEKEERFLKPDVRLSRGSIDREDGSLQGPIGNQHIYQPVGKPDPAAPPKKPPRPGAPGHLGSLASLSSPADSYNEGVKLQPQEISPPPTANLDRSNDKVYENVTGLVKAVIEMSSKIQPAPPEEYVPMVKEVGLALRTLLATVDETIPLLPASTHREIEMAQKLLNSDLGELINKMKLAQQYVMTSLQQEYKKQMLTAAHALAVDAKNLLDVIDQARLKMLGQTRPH
Procedure: Kinase reactions were performed at room temperature in lysis buffer (50 mM HEPES pH 7.5, 1 mM EGTA, 10 mM MgCl2, 2 mM DTT and 0.01% Tween-20) with 0.3 nM FAK (Signalchem), 100 nM ULight-poly GT (PerkinElmer), 10 μM ATP, and various concentrations (10 fold serial dilution, 6 points) of test compounds at a final volume of 10 μL. After 1 h, the kinase reaction was stopped by adding 10 mM EDTA and progressed by incubating the reaction mixture at room temperature for 5 min. To the mixture was added Detection Mix (Eu-anti-phospho-Tyr (PT66)) antibody to a final concentration of 2 nM and incubated for 1 h at room temperature. The plates were covered before being read using an EnVision® Multilabel reader in TR-FRET mode (excitation at 320 nm and emission at 665 nm, PerkinElmer).

HT29 = assay: Anti-proliferative activity assay (MTT / CellTiter-Glo); format: cell-based; conditions: Homo sapiens, HT-29; HT29, colon; read-out: IC50 (nM), proliferation
Procedure: (§1) Melanoma cells (A375P, A375SM) and breast cancer cells (MDA-MB-231, MCF7) were maintained in DMEM medium (Welgene, Daegu, Korea). Colorectal cancer cells (HCT116, HT29), lung cancer cells (A549) and prostate cancer cells (DU145) were grown in RPMI1640 medium (Welgene). NIH3T3 and Balb/c cells were cultured in DMEM/F12 medium (Welgene).
(§2) Each medium was supplemented with 10% FBS (Welgene) and 1% penicillin/streptomycin (Welgene) in a humidified atmosphere with 5% CO2 at 37° C. A375P cells were purchased from the American Type Culture Collection (ATCC, Rockville, Md., US), and A375SM, MDA-MB-231, MCF7, HCT116, HT29, A549, DU145, NIH3T3 and Balb/c were purchased from the Korean Cell Line Bank (Seoul, Korea).
(§3) Cells were taken from culture substrate with 0.05% trypsin-0.02% EDTA and plated at a density of 5×10^3 cells/well in 96 well plates and then incubated at 37° C. for 24 h in a humidified atmosphere with 5% CO2 prior to treatment of various concentration (tenfold serial dilution, 6 steps) of test compounds. The cell viability was assessed by the conventional 3-(4,5-dimethylthiazol-2-yl)-2,5-diphenyltetrazolium bromide (MTT) reduction assay and luminescent assay. The MTT and luminescent assays were carried out with CellTiter 96® and CellTiter-Glo® Luminescent Cell Viability Assay (Promega, Wis., USA) according to the manufacturer's instructions. The absorbance at 590 nm was recorded using EnVision2103 (PerkinElmer; Boston, Mass., US). The IC50 value was calculated using the GraphPad Prism 4.0 software.

MDA-MB-231 = assay: as above; format: cell-based; conditions: Homo sapiens; MDA-MB-231, breast; read-out: IC50 (nM), proliferation
Procedure: as §1, §2, §3

DU145 = assay: as above; format: cell-based; conditions: Homo sapiens, DU-145; DU145, prostate; read-out: IC50 (nM), proliferation
Procedure: as §1, §2, §3

A549 = assay: as above; format: cell-based; conditions: Homo sapiens; A549, lung; read-out: IC50 (nM), proliferation
Procedure: as §1, §2, §3

Balb/c = assay: as above; format: cell-based; conditions: Mus musculus, fibroblast, read-out: IC50 (nM), proliferation
Procedure: as §1, §2, §3

NIH3T3 = assay: as above; format: cell-based; conditions: Mus musculus; NIH3T3, fibroblast; read-out: IC50 (nM), proliferation
Procedure: as §1, §2, §3

A375P = assay: as above; format: cell-based; conditions: Homo sapiens, skin, read-out: IC50 (nM), proliferation
Procedure: as §1, §2, §3

HCT116 = assay: as above; format: cell-based; conditions: Homo sapiens, HCT-116; HCT116, colon; read-out: IC50 (nM), proliferation
Procedure: as §1, §2, §3

A375SM = assay: as above; format: cell-based; conditions: Homo sapiens, A375-SM, skin, read-out: IC50 (nM), proliferation
Procedure: as §1, §2, §3

MCF7 = assay: as above; format: cell-based; conditions: Homo sapiens; MCF7, breast; read-out: IC50 (nM), proliferation
Procedure: as §1, §2, §3

FAK = assay: Western analysis, FAK phosphorylation in A375P cells; format: cell-based, human; conditions: 0.1-10 nM, 48 h
Procedure: (§4) After incubating with the test compound for 48 h, both adherent and floating cancer cells were collected. The cells were lysed on ice in lysis buffer (50 mM Tris, pH 7.4, 150 mM NaCl, 1 mM EDTA, 1% NP-40, 0.25% sodium deoxycholate) supplemented with phosphatase inhibitors (Sigma #P2850, #5726; Phosphatase Inhibitor Cocktail I & II) and protease inhibitors (Complete, Mini, EDTA-free; Roche Applied Science) for 20 min. The protein concentration was determined using the Bio-Rad Protein assay reagent (Bio-Rad #500-0006). The lysate was centrifuged at 13000 rpm at 4° C. for 20 min. 50 μg of total proteins were mixed with […] (50 mM Tris-HCl (pH 6.8), 2% SDS, 10% 2-mercaptoethanol, 10% glycerol, and 0.002% bromophenol blue), boiled for 5 min, and subjected to a 10% SDS polyacrylamide gel electrophoresis. The proteins were electrophoresed onto nitrocellulose membranes and detected with antibodies against FER, FAK, DOCK180, Pyk2, Paxillin, AKT, GSK3, PTEN, JNK, ERK, Bcl-2, C-raf and Actin and against phosphorylated FER Tyr402, FAK Tyr925, Tyr861, Tyr577, Tyr576, Tyr397, Pyk2 Tyr402, Paxillin Tyr118, AKT S473, T308, GSK3β S9, JNK, ERK, Bad, C-raf and ERM T567, T564, T558 followed by the addition of horseradish peroxidase (HRP)-conjugated secondary antibodies and 3,3-diaminobenzidine tetrahydrochloride (DAB) as the HRP substrate.

A375P cells [1] = assay: QCM ECMatrix Cell Invasion Assay; format: cell-based, human; conditions: 1 nM, 48 h
Procedure: Invasion of A375P cells was assessed by using the QCM ECMatrix Cell Invasion Assay (Chemicon, Millipore, Calif.) according to the manufacturer's protocol. The cells were plated on the membrane of the upper chamber of the transwell at a concentration of 2.5×10^5 cells/well in 500 μL of serum-free medium. The medium in the lower chamber contained the test compound and 10% fetal bovine serum. The cells that passed through the polycarbonate membrane were stained with cell stain solution supplied in the Transwell Invasion assay (Chemicon, Millipore, Calif.) and photographed after 48 h of incubation. The invasion was quantitated by dissolving the stained cells in 10% acetic acid and transferring a consistent amount of the dye/solute mixture to a 96-well plate for colorimetric reading of OD at 560 nm.

PTEN = assay: Western analysis, PTEN level in A375P cells; format: cell-based, human; conditions: 48 h
Procedure: as §4

p-ERK = assay: Western analysis, ERK phosphorylation in A375P cells; format: cell-based, human; conditions: 10 nM, 48 h
Procedure: as §4

p-Bad = assay: Western analysis, Bad phosphorylation; format: cell-based, human; conditions: compared to Bcl-2
Procedure: as §4

FER Tyr402 = assay: Western analysis, FER phosphorylation in A375P cells; format: cell-based, human; conditions: 10 nM, 48 h
Procedure: as §4

GSK3β S9 = assay: Western analysis, GSK3β phosphorylation in A375P cells; format: cell-based, human; conditions: dose-dependent, 48 h
Procedure: as §4

A375P cells [2] = assay: Migration (wound healing) assay, Ibidi Culture-Insert; format: cell-based, human; conditions: 1 nM, 48 h
Procedure: Migration of the A375P cells was assessed by using the Culture-Inserts (Ibidi) according to the manufacturer's protocol. The cells were plated at a density of 1×10^5 cells/well in each well of Culture-Inserts. After 24 h incubation, the Culture-Inserts were removed, and wounds were created by using a 500-μm thick wall. The dish containing these cells was treated with medium containing the compound and incubated at 37° C. for 48 h. Phase-contrast images of the closed gap wound were captured using a microscope.

p-JNK = assay: Western analysis, JNK phosphorylation in A375P cells; format: cell-based, human; conditions: 10 nM, 48 h
Procedure: as §4

C-raf = assay: Western analysis, C-raf phosphorylation; format: cell-based, human
Procedure: as §4

Bcl-2 = assay: Western analysis, Bcl-2 expression; format: cell-based, human; conditions: concentrations >1 nM, concentration-dependent
Procedure: as §4

AKT = assay: Western analysis, AKT phosphorylation in A375P cells; format: cell-based, human; conditions: 1 nM, 48 h
Procedure: as §4

## CNC(=O)c1ccccc1Nc1nc(Nc2ccc(N3CCOCC3)cc2OC)ncc1Cl [TAE226, reference compound]
full-length FAK
  dependence of kinase inhibitory activity against full-length FAK on the concentration of ATP: inversely proportional to the concentration of ATP

## CN=C1C=CC(=C(c2ccc(N(C)C)cc2)c2ccc(N(C)C)cc2)C=C1.Cl [methyl violet 2B]
HT29
  IC50: 18.1 nM
MDA-MB-231
  IC50: 13.4 nM
DU145
  IC50: 81.5 nM
A549
  IC50: 45.6 nM
Balb/c
  IC50: 59400 nM
NIH3T3
  IC50: 938 nM
A375P
  IC50: 19.6 nM
HCT116
  IC50: 36.9 nM
A375SM
  IC50: 34.1 nM
MCF7
  IC50: 69.7 nM
FAK
  inhibitory effect on phosphorylation of FAK Tyr925, Tyr861 and Tyr577: much greater than that of Y576 and Y397
A375P cells [1]
  invasion of the A375P cells: dose-dependent decrease
PTEN
  level of PTEN: not altered
p-ERK
  inhibitory effect against p-ERK: strong inhibitory effect
p-Bad
  effect on p-Bad: less effective
FER Tyr402
  inhibition of phosphorylation of FER Tyr402: significantly inhibits
GSK3β S9
  phosphorylation of GSK3β S9: significantly blocked
A375P cells [2]
  cancer cell (A375P) motility / migration: suppresses
p-JNK
  inhibitory effect against p-JNK: strong inhibitory effect
C-raf
  phosphorylation of C-raf: did not affect
Bcl-2
  expression of the anti-apoptotic molecule Bcl-2: significantly suppressed
full-length FAK; 10 μM ATP, LANCE Ultra kinase assay
  pIC50: 5.57
full-length FAK
  dependence of kinase inhibitory activity against full-length FAK on the concentration of ATP: independent of the concentration of ATP
AKT
  inhibition of p-AKT Ser473: dramatically inhibits
  inhibition of p-AKT Thr308: dramatically inhibits
